Like-named read-outs stand apart in the source and are kept apart here. Values belong to the compound of their own block, whether it stands above or below them.
Tests used:
[1] = system: pseudo islets (dispersed islet cells); assay: cells; assay type: cell-based, Sprague Dawley rats; details: for EC50: 8 mM glucose, read-out: EC50 on insulin release; for IC50: dose-dependent, read-out: IC50 of inhibition of glucose-stimulated insulin release
Protocol: Pancreata from four Sprague Dawley rats were divided into small pieces approximately 1 mm^2 or smaller in size. The tissue was then rinsed three times with Hanks-Hepes buffer (127 mM NaCl, 5.4 mM KCl, 0.34 mM Na2HPO4, 4.4 mM KH2PO4, 20 mM HEPES, 1.2 mM CaCl2/5 mM glucose), and digested with collagenase (Liberase, 0.25 mg/ml, Roche Diagnostic Corp., Indianapolis, Ind.) at 37° C. in a water bath shaker for 10 minutes.
The digested pancreata tissue was rinsed three times with 50 ml of Hanks-Hepes buffer to remove the collagenase. The tissue pellet was then filtered through a 250 μm filter and the filtrate was mixed with 16 ml of 27% Ficoll (Sigma, St. Louis, Mo.) w/v in Hanks-Hepes buffer. Three layers of Ficoll (23%, 20.5%, and 11%, respectively; 8 ml of each concentration) were then loaded on top of the mixture of islet tissue in 27% Ficoll to form a gradient.
The Ficoll gradient was then centrifuged at 1,600 rpm for 10 minutes at room temperature. The pancreatic islets were concentrated at the interphase between 11% and 20.5%, and between 20.5% and 23% depending on the size of islets. The islets were collected from the two interphases and rinsed twice with Ca^++-free Hanks-Hepes buffer. The islets were then suspended in 5 ml Ca^++-free Hanks-Hepes buffer containing 1 mM EDTA and incubated for 8 minutes at room temperature.
Trypsin and DNAse I were added to the islet suspension for a final concentration of 25 μg/ml and 2 μg/ml, respectively. This suspension was incubated with shaking at 30° C. for 10 minutes. The trypsin digestion was stopped by adding 40 ml RPMI 1640 (GIBCO Life Technologies, Invitrogen, Carlsbad, Calif.) with 10% FBS. The trypsin digested islet cells were then filtered through a 63 μm nylon filter (PGC Scientific, Frederick, Md.) to remove large cell clusters.
The dispersed islet cells were then washed, counted using hemacytometer under the microscope, and seeded into “V-bottom” 96-well plates (2,500 cells per well). However, a range of 1,000 to 10,000 cells per well may used. The dispersed islet cell suspension was then centrifuged at 1,000 rpm for 5 minutes. The Hanks-Hepes buffer was removed and replaced with 200 μl RPMI 1640 medium containing 10% FBS, 1% Penicillin-Streptomycin, and 2 mM L-glutamine. Next, the 96-well plates were centrifuged at 1,000 rpm for 5 minutes to collect the dispersed islet cells concentrated at the V-bottom of the plate forming pseudo islets. These pseudo islets were then cultured overnight in a cell culture incubator at 37° C. with 5% CO2, and then used for assays.
(§1) Pseudo islets were prepared by the method described in Example 1. Following an overnight incubation, the RPMI 1640 medium was removed and replaced by 100 μl Krebs-Ringer-Hepes buffer (115 mM NaCl, 5.0 mM KCl, 24 mM NaHCO3, 2.2 mM CaCl2, 1 mM MgCl2, 20 mM HEPES, 0.25% BSA, 0.002% Phenol Red, pH 7.35-7.40). The cell suspension was then centrifuged for 5 minutes at 1,000 rpm to pellet the dispersed islet cells.
(§2) Pseudo islets in 96-well plates were incubated in a water bath at 37° C. continuously gassed with 95% O2/5% CO2 for pre-incubation for 30 minutes. The pre-incubation buffer was removed and replaced with 50 μl incubation buffer (Krebs-Ringer-Hepes buffer, pH 7.35-7.40) containing various test substrates.
The 96-well plate was centrifuged again at 1,000 rpm for 5 minutes to form pseudo islets. These pseudo islets in 96-well plates were statically incubated in a water bath at 37° C. continuously gassed with 95% O2/5% CO2 for 60 minutes. The incubation buffer (25 μl) was collected after the 60-minute incubation and used for an insulin content assay (ELISA assay, ALPCO, N.H.).

[2] = system: pseudo islets co-cultured with fibroblasts; assay: Insulin release from pseudo islets co-cultured with fibroblasts; assay type: cell-based, Sprague Dawley rats; details: increasing amounts of GLP-1
Protocol: Dispersed islet cells (prepared by the method described in Example 1) were washed with regular RPMI 1640 medium with 10% FBS, counted using hemacytometer under the microscope, and seeded into “V-bottom” 96-well plates with fibroblasts (2,500 islet cells and 1,250 fibroblasts cells per well). The cell suspension was then centrifuged at 1,000 rpm for 5 minutes to collect the dispersed islet cells concentrated at the V-bottom of the plate forming pseudo islets. These pseudo islets were then co-cultured with the fibroblasts cells overnight in a cell culture incubator at 37° C. with 5% CO2, and then used for assays.
as §1
as §2, with “substrates. […]” for “substrates.”

Structure (SMILES): CC(C)Cn1c(=O)n(C)c(=O)c2[nH]cnc21 [IBMX]
EC50 [1]: 21900 nM

Structure (SMILES): CC[C@H](C)[C@H](NC(=O)[C@H](Cc1ccccc1)NC(=O)[C@H](CCC(=O)O)NC(=O)[C@H](CCCCN)NC(=O)[C@H](C)NC(=O)[C@H](C)NC(=O)[C@H](CCC(N)=O)NC(=O)CNC(=O)[C@H](CCC(=O)O)NC(=O)[C@H](CC(C)C)NC(=O)[C@H](Cc1ccc(O)cc1)NC(=O)[C@H](CO)NC(=O)[C@H](CO)NC(=O)[C@@H](NC(=O)[C@H](CC(=O)O)NC(=O)[C@H](CO)NC(=O)[C@@H](NC(=O)[C@H](Cc1ccccc1)NC(=O)[C@@H](NC(=O)CNC(=O)[C@H](CCC(=O)O)NC(=O)[C@H](C)NC(=O)[C@@H](N)Cc1c[nH]cn1)[C@@H](C)O)[C@@H](C)O)C(C)C)C(=O)N[C@@H](C)C(=O)N[C@@H](Cc1c[nH]c2ccccc12)C(=O)N[C@@H](CC(C)C)C(=O)N[C@H](C(=O)N[C@@H](CCCCN)C(=O)NCC(=O)N[C@@H](CCCNC(=N)N)C(N)=O)C(C)C [GLP-1]
GLP-1 mediated insulin secretion on co-culture with fibroblasts [2]: enhanced

Structure (SMILES): C[C@H](N)C(=O)NCC(=O)N[C@H]1CSSC[C@@H](C(=O)O)NC(=O)[C@H](CO)NC(=O)[C@H]([C@@H](C)O)NC(=O)[C@H](Cc2ccccc2)NC(=O)[C@H]([C@@H](C)O)NC(=O)[C@H](CCCCN)NC(=O)[C@H](Cc2c[nH]c3ccccc23)NC(=O)[C@H](Cc2ccccc2)NC(=O)[C@H](Cc2ccccc2)NC(=O)[C@H](CC(N)=O)NC(=O)[C@H](CCCCN)NC1=O [somatostain]
IC50 [1]: 0.9 nM

Second part, the compound after the results:

EC50 ([1]; Rattus norvegicus): 900 nM
Structure (SMILES): C=C[C@@]1(C)CC(=O)[C@]2(O)[C@@]3(C)[C@@H](O)CCC(C)(C)[C@@H]3[C@H](O)[C@H](OC(C)=O)[C@@]2(C)O1 [forskolin]

EC50 ([1]; Rattus norvegicus): 370 nM
Structure (SMILES): COc1ccc(Cl)cc1C(=O)NCCc1ccc(S(=O)(=O)NC(=O)NC2CCCCC2)cc1 [glybenclamide]

EC50 ([1]; Rattus norvegicus): 10100 nM
Structure (SMILES): CC(=O)OCC[N+](C)(C)C [Ach, Acetylcholine]

IC50 ([1]; Rattus norvegicus): 56.7 nM
Structure (SMILES): NC[C@H](O)c1ccc(O)c(O)c1 [NE, norepinephrine]

Source: patent publication US20040005299A1, “Method for producing pseudo islets” (Bayer Pharmaceuticals Corporation, priority 2002, published 2004)
